Laboratory results published in the NIST ThermoML archive (doi:10.1021/je800046k).

Assay: xn = mol fraction of the nth substance listed
Conditions: for surface tension liquid-gas: Pendant drop shape; for mass density: 101 kPa, Liquid

Cc1ccc(C)c(C)c1 [1,2,4-trimethylbenzene] + CC(=O)OC(C)C
Conditions	mass density [kg/m3]	surface tension liquid-gas [mN/m]
298.15 K, x2 = 0	871.71	29.3
298.15 K, x2 = 0.0492	871.44	28.8
298.15 K, x2 = 0.101	871.17	28.25
298.15 K, x2 = 0.1507	870.9	27.69
298.15 K, x2 = 0.1995	870.64	27.13
298.15 K, x2 = 0.251	870.36	26.6
298.15 K, x2 = 0.3006	870.1	26.09
298.15 K, x2 = 0.3513	869.83	25.6
298.15 K, x2 = 0.4008	869.56	25.15
298.15 K, x2 = 0.45	869.3	24.75
298.15 K, x2 = 0.4998	869.03	24.34
298.15 K, x2 = 0.5498	868.76	23.99
298.15 K, x2 = 0.6007	868.49	23.64
298.15 K, x2 = 0.6492	868.23	23.33
298.15 K, x2 = 0.7004	867.95	23.05
298.15 K, x2 = 0.7501	867.68	22.78
298.15 K, x2 = 0.7968	867.42	22.56
298.15 K, x2 = 0.8495	867.12	22.34
298.15 K, x2 = 0.8995	866.84	22.15
298.15 K, x2 = 0.9492	866.55	21.99
308.15 K, x2 = 0	863.68	28.24
308.15 K, x2 = 0.0488	863.27	27.69
308.15 K, x2 = 0.0999	862.84	27.12
308.15 K, x2 = 0.1499	862.42	26.56
308.15 K, x2 = 0.2002	861.99	26
308.15 K, x2 = 0.2504	861.56	25.48
308.15 K, x2 = 0.3001	861.13	24.96
308.15 K, x2 = 0.3519	860.67	24.47
308.15 K, x2 = 0.4	860.24	24.04
308.15 K, x2 = 0.45	859.79	23.62
308.15 K, x2 = 0.4964	859.37	23.24
308.15 K, x2 = 0.5495	858.89	22.86
308.15 K, x2 = 0.6008	858.42	22.51
308.15 K, x2 = 0.6499	857.96	22.21
308.15 K, x2 = 0.7004	857.49	21.88
308.15 K, x2 = 0.7494	857.03	21.67
308.15 K, x2 = 0.7986	856.55	21.43
308.15 K, x2 = 0.85	856.05	21.2
308.15 K, x2 = 0.8997	855.56	21.05
308.15 K, x2 = 0.9498	855.05	20.89
313.15 K, x2 = 0	859.58	27.71
313.15 K, x2 = 0.0494	859.1	27.14
313.15 K, x2 = 0.0983	858.61	26.56
313.15 K, x2 = 0.1504	858.09	26
313.15 K, x2 = 0.1999	857.59	25.44
313.15 K, x2 = 0.2506	857.07	24.93
313.15 K, x2 = 0.3004	856.55	24.41
313.15 K, x2 = 0.3508	856.02	23.92
313.15 K, x2 = 0.3995	855.5	23.51
313.15 K, x2 = 0.4493	854.97	23.08
313.15 K, x2 = 0.4992	854.43	22.65
313.15 K, x2 = 0.5492	853.88	22.29
313.15 K, x2 = 0.6	853.32	21.94
313.15 K, x2 = 0.6493	852.77	21.65
313.15 K, x2 = 0.6995	852.2	21.33
313.15 K, x2 = 0.7501	851.62	21.09
313.15 K, x2 = 0.8	851.04	20.88
313.15 K, x2 = 0.8504	850.44	20.65
313.15 K, x2 = 0.9004	849.84	20.52
313.15 K, x2 = 0.9478	849.26	20.37

Cc1cc(C)cc(C)c1 [1,3,5-trimethylbenzene] + CC(=O)OC(C)C
Conditions	mass density [kg/m3]	surface tension liquid-gas [mN/m]
298.15 K, x2 = 0	861.12	28.05
298.15 K, x2 = 0.0495	861.03	27.68
298.15 K, x2 = 0.1008	861.01	27.28
298.15 K, x2 = 0.1504	860.99	26.92
298.15 K, x2 = 0.199	861.02	26.52
298.15 K, x2 = 0.2514	861.07	26.15
298.15 K, x2 = 0.2996	861.13	25.79
298.15 K, x2 = 0.351	861.25	25.42
298.15 K, x2 = 0.4009	861.36	25.07
298.15 K, x2 = 0.4502	861.53	24.71
298.15 K, x2 = 0.5002	861.71	24.37
298.15 K, x2 = 0.5497	861.96	24.05
298.15 K, x2 = 0.6001	862.22	23.72
298.15 K, x2 = 0.6502	862.53	23.42
298.15 K, x2 = 0.7003	862.88	23.14
298.15 K, x2 = 0.7496	863.29	22.88
298.15 K, x2 = 0.7987	863.73	22.65
298.15 K, x2 = 0.8498	864.28	22.46
298.15 K, x2 = 0.8998	864.85	22.28
298.15 K, x2 = 0.9505	865.52	22.06
308.15 K, x2 = 0	852.94	27.21
308.15 K, x2 = 0.0501	852.69	26.78
308.15 K, x2 = 0.0993	852.53	26.37
308.15 K, x2 = 0.1514	852.38	25.94
308.15 K, x2 = 0.2	852.27	25.55
308.15 K, x2 = 0.2514	852.16	25.16
308.15 K, x2 = 0.3018	852.09	24.8
308.15 K, x2 = 0.353	852.03	24.42
308.15 K, x2 = 0.3991	852.01	24.06
308.15 K, x2 = 0.4503	852	23.69
308.15 K, x2 = 0.4993	852.03	23.35
308.15 K, x2 = 0.5492	852.08	23.01
308.15 K, x2 = 0.6	852.18	22.67
308.15 K, x2 = 0.65	852.3	22.36
308.15 K, x2 = 0.7003	852.47	22.05
308.15 K, x2 = 0.7499	852.68	21.79
308.15 K, x2 = 0.7993	852.92	21.52
308.15 K, x2 = 0.8488	853.23	21.31
308.15 K, x2 = 0.9004	853.61	21.14
308.15 K, x2 = 0.9506	854.03	20.92
313.15 K, x2 = 0	848.82	26.78
313.15 K, x2 = 0.0498	848.53	26.33
313.15 K, x2 = 0.1001	848.29	25.9
313.15 K, x2 = 0.1495	848.08	25.45
313.15 K, x2 = 0.2006	847.88	25.06
313.15 K, x2 = 0.25	847.71	24.67
313.15 K, x2 = 0.3005	847.55	24.28
313.15 K, x2 = 0.3497	847.43	23.9
313.15 K, x2 = 0.3998	847.3	23.54
313.15 K, x2 = 0.4508	847.22	23.18
313.15 K, x2 = 0.4998	847.16	22.82
313.15 K, x2 = 0.5496	847.13	22.49
313.15 K, x2 = 0.6007	847.12	22.13
313.15 K, x2 = 0.6504	847.16	21.83
313.15 K, x2 = 0.7	847.23	21.5
313.15 K, x2 = 0.7495	847.33	21.22
313.15 K, x2 = 0.7993	847.48	20.96
313.15 K, x2 = 0.8507	847.68	20.73
313.15 K, x2 = 0.9008	847.93	20.52
313.15 K, x2 = 0.9504	848.25	20.36
